PubChem BioAssay AID2060619 (Molecular Pharmacology Branch, DTP, NCI, 2025)

System: 323965-272-R-J2-PDC complex spheroid viability
Assay: Anticancer human tumor 323965-272-R-J2-PDC patient-derived pancreatic carcinoma cell line growth inhibition [CLK]
Settings: for IC50: curve of first compound; for viability, T/C: stronger effect = lower value
Excerpt: A high-throughput screen of multi-cell type tumor spheroids was designed to identify active combinations of […] and targeted small molecules. Complex spheroids include a stromal component modeled by human endothelial cells (HUVEC) and fibroblasts modeled by human mesenchymal stem cells (MSCs). The concentration ranges selected for each drug and investigational agent were based upon clinically achievable concentrations if the clinical Cmax of the agent was known.
Compounds. The drugs and investigational agents: cirtuvivint (SM08502; NSC835563), CC-671 (NSC850746), vemurafenib (NSC761431), tapotoclax (NSC804041), sotorasib (NSC818433), adagrasib (NSC831453), MRTX-1133 (NSC836407), BAY2416964 (NSC825713), copanlisib (NSC816437), inavolisib (NSC800729), abemaciclib (NSC768073), osimertinib (NSC779217), entinostat (NSC756642), eltanexor (KPT-8602, NSC794443), venetoclax (NSC766270), ceralasertib (NSC777638), bortezomib (NSC756655), olaparib (NSC753686), talazoparib (NSC767125), alisertib (NSC759677), peposertib (NSC802822), gemcitabine (NSC613327), 5-fluorouracil (NSC19893), SN-38 (NSC673596), oxaliplatin (NSC266046), paclitaxel (NSC125973), and doxorubicin (NSC123127), were obtained from the National Cancer Institute (NCI) Developmental Therapeutics Program Chemical Repository. The FDA-approved anticancer drug set is available from the Developmental Therapeutics Program at https://dtp.cancer.gov/organization/dscb/obtaining/available plates.htm. […] The stock solutions were prepared in dimethyl sulfoxide (DMSO, Sigma-Aldrich, St. Louis, MO, cat. D2650), except for the platinum complexes which were prepared in saline (Quality Biological, Gaithersburg, MD, cat. 114-055-101), at 800-fold the tested concentration and stored at -70 degrees C prior to their use. All drugs and investigational agents were tested over a range starting from a high concentration at or near the clinical Cmax and decreasing in half-log increments. If the clinical Cmax for an agent had not been determined, the highest concentration tested was 10 microM.
Cell Culture. All cells were maintained in an incubator at 37 degrees C and 5% CO2 with 95% humidity. The PDC lines were cultured according to standard operating procedures established by the NCI PDMR. Briefly, all PDCs were thawed and cultured in Matrigel-coated flasks prepared with a working solution of 1X Ham's F-12 nutrient mix, without supplementation (Invitrogen, Waltham, MA, cat. 11765054), 100 U/mL penicillin-streptomycin (Invitrogen, cat. 15140122), and 2.5% Matrigel (Corning Inc., Corning, NY, cat. 354248) for the first three passages. The 947758-054-R-J2-PDC line was cultured in 6B/Colon 1A media, which includes advanced DMEM/F-12 (Thermo Fisher Scientific, cat. 12634028), 10 mM HEPES (Thermo Fisher Scientific, cat. 15630080), 1X GlutaMAX supplement (Thermo Fisher Scientific, cat. 35050061), 0.1 mg/mL primocin (InvivoGen, cat. ant-pm-2), 10% defined fetal bovine serum, heat inactivated (HyClone Laboratories Inc., cat. SH30070.03HI), 1.25 mM N-Acetyl-L-cysteine (Sigma-Aldrich, cat. A9165), 10 mM nicotinamide (Sigma-Aldrich, cat. N0636), 1X B-27 supplement (Thermo Fisher Scientific, cat. 17504044), 1X N-2 supplement (Thermo Fisher Scientific, cat. 17502048), and 10 microM Y-27632 dihydrochloride (Tocris Bioscience, cat. 1254). The 876862-298-R-J1-PDC was cultured in 6E media, which includes all 6B/Colon 1A media components plus 50% L-WRN conditioned media (ATCC, cat. CRL-3276), 50 ng/mL recombinant human EGF recombinant protein (hEGF; Thermo Fisher Scientific, cat. PHG0311), 10 ng/mL recombinant human fibroblast growth factor 10 (hGFG-10; PeproTech, cat. 100-26), 1 ng/mL recombinant human fibroblast growth factor 2 (hFGF-2; PeproTech, cat. 100-18B), and 1 µM prostaglandin E2 (PGE2; Tocris, cat. 2296). The 227483-062-R1-J1-PDC line was cultured in Panc media, containing all 6E components except hFGF-2, with the addition of 500 nM SB-431542 (Selleckchem, cat. S1067) and 10 nM gastrin (Tocris, cat. 3006). […]

[1] = second compound 0.0316 µM, first compound 0.0316 µM
[2] = second compound 0.0316 µM, first compound 0.1 µM
[3] = second compound 0.0316 µM, first compound 0.316 µM
[4] = second compound 0.0316 µM, first compound 1 µM
[5] = second compound 0.0316 µM, first compound 3.16 µM
[6] = second compound 0.0316 µM, first compound 10 µM
[7] = second compound 0.1 µM, first compound 0.0316 µM
[8] = second compound 0.1 µM, first compound 0.1 µM
[9] = second compound 0.1 µM, first compound 0.316 µM
[10] = second compound 0.1 µM, first compound 1 µM
[11] = second compound 0.1 µM, first compound 3.16 µM
[12] = second compound 0.1 µM, first compound 10 µM
[13] = second compound 0.316 µM, first compound 0.0316 µM
[14] = second compound 0.316 µM, first compound 0.1 µM
[15] = second compound 0.316 µM, first compound 0.316 µM
[16] = second compound 0.316 µM, first compound 1 µM
[17] = second compound 0.316 µM, first compound 3.16 µM
[18] = second compound 0.316 µM, first compound 10 µM
[19] = second compound 1 µM, first compound 0.0316 µM
[20] = second compound 1 µM, first compound 0.1 µM
[21] = second compound 1 µM, first compound 0.316 µM
[22] = second compound 1 µM, first compound 1 µM
[23] = second compound 1 µM, first compound 3.16 µM
[24] = second compound 1 µM, first compound 10 µM
[25] = second compound 3.16 µM, first compound 0.0316 µM
[26] = second compound 3.16 µM, first compound 0.1 µM
[27] = second compound 3.16 µM, first compound 0.316 µM
[28] = second compound 3.16 µM, first compound 1 µM
[29] = second compound 3.16 µM, first compound 3.16 µM
[30] = second compound 3.16 µM, first compound 10 µM
[31] = second compound 10 µM, first compound 0.0316 µM
[32] = second compound 10 µM, first compound 0.1 µM
[33] = second compound 10 µM, first compound 0.316 µM
[34] = second compound 10 µM, first compound 1 µM
[35] = second compound 10 µM, first compound 3.16 µM
[36] = second compound 10 µM, first compound 10 µM
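Also: spheroids exposed to agents for seven days before readout.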
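For viability, T/C in this document: percent of DMSO vehicle control wells so 100% = untreated growth.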

## O=C(c1cc(Cc2n[nH]c(=O)c3ccccc23)ccc1F)N1CCN(C(=O)C2CC2)CC1 + CN1CCN(c2cc(C(=O)Nc3cc4cc(-c5cnn(C)c5)ccc4cn3)ccn2)CC1
Second compound 0.0316 µM
  IC50: > 10 µM
Second compound 0.1 µM
  IC50: > 10 µM
Second compound 0.316 µM
  IC50: < 0.0316 µM
Second compound 1 µM
  IC50: < 0.0316 µM
Second compound 3.16 µM
  IC50: < 0.0316 µM
Second compound 10 µM
  IC50: < 0.0316 µM
[1]
  viability, T/C: 91.1%
[2]
  viability, T/C: 93.4%
[3]
  viability, T/C: 87.4%
[4]
  viability, T/C: 102%
[5]
  viability, T/C: 93.5%
[6]
  viability, T/C: 80.2%
[7]
  viability, T/C: 70.6%
[8]
  viability, T/C: 81.2%
[9]
  viability, T/C: 68.7%
[10]
  viability, T/C: 64.8%
[11]
  viability, T/C: 65.6%
[12]
  viability, T/C: 56.2%
[13]
  viability, T/C: 23.2%
[14]
  viability, T/C: 26.9%
[15]
  viability, T/C: 22.6%
[16]
  viability, T/C: 26.6%
[17]
  viability, T/C: 24.9%
[18]
  viability, T/C: 26.9%
[19]
  viability, T/C: 4.07%
[20]
  viability, T/C: 7.03%
[21]
  viability, T/C: 3.28%
[22]
  viability, T/C: 3.68%
[23]
  viability, T/C: 3.67%
[24]
  viability, T/C: 3.82%
[25]
  viability, T/C: 5.15%
[26]
  viability, T/C: 4.92%
[27]
  viability, T/C: 4.78%
[28]
  viability, T/C: 4.57%
[29]
  viability, T/C: 5.09%
[30]
  viability, T/C: 7.05%
[31]
  viability, T/C: 4.14%
[32]
  viability, T/C: 5.28%
[33]
  viability, T/C: 5.97%
[34]
  viability, T/C: 4.83%
[35]
  viability, T/C: 4.72%
[36]
  viability, T/C: 6.29%

## CCCS(=O)(=O)Nc1ccc(F)c(C(=O)c2c[nH]c3ncc(-c4ccc(Cl)cc4)cc23)c1F + CNC(=O)c1ccc(Nc2nc(OC3CCCC3)c3c(-c4ccc5nc(C)oc5c4)c[nH]c3n2)c(OC)c1
Second compound 0.0316 µM
  IC50: > 10 µM
Second compound 0.1 µM
  IC50: > 10 µM
Second compound 0.316 µM
  IC50: > 10 µM
Second compound 1 µM
  IC50: > 10 µM
Second compound 3.16 µM
  IC50: < 0.0316 µM
Second compound 10 µM
  IC50: < 0.0316 µM
[1]
  viability, T/C: 106%
[2]
  viability, T/C: 113%
[3]
  viability, T/C: 116%
[4]
  viability, T/C: 127%
[5]
  viability, T/C: 127%
[6]
  viability, T/C: 106%
[7]
  viability, T/C: 94.3%
[8]
  viability, T/C: 88.2%
[9]
  viability, T/C: 97.5%
[10]
  viability, T/C: 98.3%
[11]
  viability, T/C: 90%
[12]
  viability, T/C: 79.9%
[13]
  viability, T/C: 72.5%
[14]
  viability, T/C: 74.8%
[15]
  viability, T/C: 78%
[16]
  viability, T/C: 78.8%
[17]
  viability, T/C: 88.8%
[18]
  viability, T/C: 72%
[19]
  viability, T/C: 47.8%
[20]
  viability, T/C: 59.6%
[21]
  viability, T/C: 64.8%
[22]
  viability, T/C: 71%
[23]
  viability, T/C: 60.9%
[24]
  viability, T/C: 60.2%
[25]
  viability, T/C: 47.6%
[26]
  viability, T/C: 54.7%
[27]
  viability, T/C: 53.6%
[28]
  viability, T/C: 49.2%
[29]
  viability, T/C: 61.5%
[30]
  viability, T/C: 59.2%
[31]
  viability, T/C: 42.5%
[32]
  viability, T/C: 50.6%
[33]
  viability, T/C: 47.8%
[34]
  viability, T/C: 58.8%
[35]
  viability, T/C: 67.2%
[36]
  viability, T/C: 61.4%
